According to publication PMC3898329, “Human junctophilin-2 undergoes a structural rearrangement upon binding PtdIns(3,4,5)P3 and the S101R mutation identified in hypertrophic cardiomyopathy obviates this response” (Biochemical Journal, 2013):
Residue numbers refer to the chain shown, from its start.

Key:
[1] = biological target: T1, full-length human JP2 (junctophilin-2) (Homo sapiens, UniProt Q9BR39); assay: protein-lipid overlay; conditions: weak binding
T1 construct: gene JPH2; full-length, N-terminal MBP tag removed with PreScission protease; E. coli BL21; ~75 kDa on SDS/PAGE; stated as monomeric
T1 sequence (Q9BR39 1-696): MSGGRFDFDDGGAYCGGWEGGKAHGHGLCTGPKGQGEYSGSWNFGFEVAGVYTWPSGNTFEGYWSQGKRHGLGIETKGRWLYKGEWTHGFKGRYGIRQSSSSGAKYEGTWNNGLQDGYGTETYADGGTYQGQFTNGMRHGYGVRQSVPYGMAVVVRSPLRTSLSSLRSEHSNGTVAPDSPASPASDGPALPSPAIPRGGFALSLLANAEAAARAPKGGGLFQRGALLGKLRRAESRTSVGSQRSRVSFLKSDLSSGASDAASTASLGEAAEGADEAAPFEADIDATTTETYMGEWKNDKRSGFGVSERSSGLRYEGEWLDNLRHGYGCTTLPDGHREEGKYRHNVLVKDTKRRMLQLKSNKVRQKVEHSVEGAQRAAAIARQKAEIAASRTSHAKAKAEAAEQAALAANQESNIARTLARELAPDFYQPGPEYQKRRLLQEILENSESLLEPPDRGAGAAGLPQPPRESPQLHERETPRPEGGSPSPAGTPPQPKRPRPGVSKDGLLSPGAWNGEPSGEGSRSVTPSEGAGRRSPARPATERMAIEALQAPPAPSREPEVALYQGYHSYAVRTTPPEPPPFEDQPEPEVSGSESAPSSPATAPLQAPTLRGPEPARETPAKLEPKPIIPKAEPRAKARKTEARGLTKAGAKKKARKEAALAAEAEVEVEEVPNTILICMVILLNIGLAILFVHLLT

[2] = biological target: T1, full-length human JP2 (junctophilin-2); assay: QCM-D, supported lipid bilayer, one-site isotherm; format: binding; conditions: read-out: DOPC/DOPE/POPC/DOPS (55:15:10:20, by vol.) JP2
From the text: (§1) QCM-D, supported lipid bilayer, one-site isotherm on full-length human JP2 (junctophilin-2)

[3] = biological target: T2, full-length human JP2 (junctophilin-2) (Homo sapiens, UniProt Q9BR39, S101R); assay: QCM-D, supported lipid bilayer, one-site isotherm; format: binding; conditions: read-out: DOPC/DOPE/POPC/DOPS (55:15:10:20, by vol.) / S101R
T2 construct: gene JPH2; full-length, N-terminal MBP tag removed with PreScission protease; E. coli BL21; ~75 kDa on SDS/PAGE; stated as monomeric
T2 sequence (Q9BR39 1-696 S101R): T1 sequence (Q9BR39 1-696) with S101R
From the text: as §1

[4] = biological target: T3, JP2^1–452 (N-terminal domain) (Homo sapiens, UniProt Q9BR39); assay: QCM-D, supported lipid bilayer, one-site isotherm; format: binding; conditions: read-out: DOPC/DOPE/POPC/DOPS (55:15:10:20, by vol.) / JP2^1-452
T3 construct: gene JPH2; N-terminal segment, residues 1-452, N-terminal MBP tag removed with PreScission protease; E. coli BL21; ~50 kDa on SDS/PAGE
T3 sequence (Q9BR39 1-452): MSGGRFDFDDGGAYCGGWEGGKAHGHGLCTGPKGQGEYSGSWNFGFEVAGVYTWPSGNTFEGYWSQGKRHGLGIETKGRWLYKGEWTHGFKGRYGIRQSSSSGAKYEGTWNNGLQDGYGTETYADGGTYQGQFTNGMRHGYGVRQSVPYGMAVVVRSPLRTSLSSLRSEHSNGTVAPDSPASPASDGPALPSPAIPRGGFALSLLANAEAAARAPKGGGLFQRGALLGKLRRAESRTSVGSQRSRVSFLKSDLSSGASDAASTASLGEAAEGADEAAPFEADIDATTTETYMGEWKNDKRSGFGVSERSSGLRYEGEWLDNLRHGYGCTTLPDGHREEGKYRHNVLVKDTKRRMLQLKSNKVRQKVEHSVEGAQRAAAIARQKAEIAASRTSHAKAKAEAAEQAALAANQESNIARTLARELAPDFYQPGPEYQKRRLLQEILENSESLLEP
From the text: QCM-D, supported lipid bilayer, one-site isotherm on JP2^1–452 (N-terminal domain)

Compound	protein-lipid overlay [1]	Kd [2] [nM]	Kd [3] [nM]	Kd [4] [nM]
CCCCCCCC/C=C\CCCCCCCC(=O)OC[C@H](COP(=O)(O)OCC(O)CO)OC(=O)CCCCCCC/C=C\CCCCCCCC (stereo partly shown) [DOPG, 1,2-dioleoyl-sn-glycero-3-phosphoglycerol]	there is only weak binding of JP2 to DOPG	–	–	–
CCCCCCCC/C=C\CCCCCCCC(=O)OC[C@H](COP(=O)(O)OC[C@H](N)C(=O)O)OC(=O)CCCCCCC/C=C\CCCCCCCC [DOPS, 1,2-dioleoyl-sn-glycero-3-phospho-L-serine]	–	483 ± 54	371 ± 31	992 ± 80
